Assays:
[1] = target: T1, CYP450 enzyme isoform 2C19 (Homo sapiens, UniProt P33261); assay: CYP enzyme single-point inhibition assay, 2C19; assay type: in vitro ADME; settings: human liver microsome, single-point method
T1 construct: single-point method using human liver microsome incubation system; from tissue; host or cells: human liver microsomes
Description: Test Example 7. CYP Enzyme Single-Point Inhibition Assay
The inhibition of the compounds on CYP450 enzyme isoformwas rapidly predicted by single-point method using human liver microsome incubation system.
2.5 mM NADPH: 4.165 mg of NADPH (reduced nicotinamide adenine dinucleotide phosphate) was weighed, followed by addition of 100 mM phosphate buffer to 2 mL. 0.25 mg/mL microsome solution: 4 mL of 100 mM phosphate buffer was added to 50 μL of 20 mg/mL microsome solution and mixed well.
The test compound of the Example was weighed, diluted to 10 mM with DMSO and then to 100 μM with 100 mM phosphate buffer.
1. 40 μL of liver microsome, 10 μL of substrate and 10 μL of the test compound were added to a 96-well plate and pre-incubated for 3 min.
2. 40 μL of NADPH was added.
3. 300 μL of acetonitrile stop solution containing internal standard was added at 20 min.
4. The sample was centrifuged and injected.

[2] = Metabolic stability in liver microsome (rat); assay type: in vitro ADME; settings: rat liver microsome 0.5 mg/mL, compound 1 μM; for half-life at 1 μM: liver microsomes
Description: Test Example 5. Assay of Metabolic Stability in Liver Microsome
The objective of the experiment is to determine the stability of the compounds of the Examples in liver microsome of mouse, rat, dog and human.
Formulation of the working solution of the compound: The stock solution of the compound was added to phosphate buffer, and the final concentration was 20 μM.
Liver microsome was diluted with 100 mM phosphate buffer to obtain a final concentration of 0.625 mg/mL.
NADPH (reduced nicotinamide adenine dinucleotide phosphate) and UDPGA (uridine diphosphate glucuronic acid) were weighed respectively, followed by addition of 100 mM phosphate buffer. The final concentrations were 20 mM.
1 mg of Alamethicin was weighed, to which 200 μL of DMSO was added to obtain a 5 mg/mL solution. The solution was diluted with phosphate buffer to obtain a final concentration of 50 μg/mL.
2.5 Formulation of the reaction stop solution Stop solution: Cold acetonitrile containing 100 ng/mL labetalol hydrochloride and 400 ng/mL tolbutamide as internal standards.
400 μL of the prepared liver microsome, 25 μL of the working solution of the compound and 25 μL of Alamethicin were added to a 96-well plate successively, which was then pre-incubated at 37° C. for 10 min. 50 μL of the prepared NADPH/UDPGA was added to initiate the reaction, and the plate was incubated at 37° C. The total volume of the reaction system was 500 μL. The final contents of the components were as follows: […]

T1 sequence (P33261 whole entry, canonical isoform): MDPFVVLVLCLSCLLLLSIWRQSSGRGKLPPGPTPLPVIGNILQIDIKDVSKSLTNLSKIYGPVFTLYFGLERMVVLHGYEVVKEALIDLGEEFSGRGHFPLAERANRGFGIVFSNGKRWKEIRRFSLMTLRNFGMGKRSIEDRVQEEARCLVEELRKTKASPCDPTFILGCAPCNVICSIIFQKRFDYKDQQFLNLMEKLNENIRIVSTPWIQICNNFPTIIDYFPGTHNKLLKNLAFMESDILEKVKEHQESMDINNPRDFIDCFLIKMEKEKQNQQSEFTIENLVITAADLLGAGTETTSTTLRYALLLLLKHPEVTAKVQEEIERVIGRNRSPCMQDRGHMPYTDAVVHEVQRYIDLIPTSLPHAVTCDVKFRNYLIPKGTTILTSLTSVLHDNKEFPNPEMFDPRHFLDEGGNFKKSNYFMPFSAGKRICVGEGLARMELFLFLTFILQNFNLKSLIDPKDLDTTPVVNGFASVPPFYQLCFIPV

CCc1cc2n(CC(=O)Nc3ccc(F)cn3)c(=O)c3ccc(C(F)(F)F)nc3n2n1 [Example 34, 2-(2-Ethyl-5-oxo-8-(trifluoromethyl)pyrazolo[1,5-a]pyrido[3,2-e]pyrimidin-4(5H)-yl)-N-(5-fluoropyridin-2-yl)acetamide]
IC50 [1]: > 100 µM
half-life at 1 μM ([2]; NADPH/UDPGA): 28.9 h
Remaining (%, 60 min) [2]: 104.4%

O=C(Cn1c(=O)c2ccc(C(F)(F)F)nc2n2nc(Br)cc12)Nc1ccc(F)cn1 [Example 61-A, 2-(2-bromo-5-oxo-8-(trifluoromethyl)pyrazolo[1,5-a]pyrido[3,2-e]pyrimidin-4(5H)-yl)-N-(5-fluoropyridin-2-yl)acetamide]
IC50 [1]: > 100 µM
half-life at 1 μM ([2]; NADPH/UDPGA): 15.7 h
Remaining (%, 60 min) [2]: 102.3%

N#Cc1cc2n(CC(=O)Nc3ccc(F)cn3)c(=O)c3ccc(C(F)(F)F)nc3n2n1 [Example 68, 2-(2-Cyano-5-oxo-8-(trifluoromethyl)pyrazolo[1,5-a]pyrido[3,2-e]pyrimidin-4(5H)-yl)-N-(5-fluoropyridin-2-yl)acetamide]
IC50 [1]: > 100 µM
Remaining (%, 60 min) [2]: 106.4%
t1/2 ([2]; NADPH/UDPGA): ∞

O=C(Cn1c(=O)c2ccc(C(F)(F)F)nc2n2nccc12)Nc1ccc(F)cn1 [Example 78, N-(5-Fluoropyridin-2-yl)-2-(5-oxo-8-(trifluoromethyl)pyrazolo[1,5-a]pyrido[3,2-e]pyrimidin-4(5H)-yl)acetamide]
IC50 [1]: > 100 µM
half-life at 1 μM ([2]; NADPH/UDPGA): 32.7 h
Remaining (%, 60 min) [2]: 98.9%
